Data reported in patent EP2886535A1, “Novel veterinary isometamidium compositions and similar substances and uses thereof” (Ceva Sante Animale, priority 2013, dated 2015).
Like-named read-outs stand apart in the source and are kept apart here.

How the values were obtained:
T. congolense [1] = assay: In vivo curative and preventive activity in infected and monthly re-infected mice; design: species or system souris femelles swiss (CD1); details: for Nombre de souris avec une parasitemia positive: n=5; for activité curative et préventive (durée): dose 1 mg/kg
Experimental: La souche T. congolense est cultivée et les différents composés sont préparés selon les protocoles de culture et de préparation décrits pour les tests in vitro (Exemples 1 et 2).
Des parasites de la souche de T. congolense ont été initialement propagés dans des souris femelles swiss (CD1) âgées de 8 semaines (200 mg/kg). Ces souris sont ensuite infectés par voie intrapéritonéale avec 10^5 trypanosomes de souche T. congolense dans un volume final de 200 µl de tampon phosphate glucose (137 mM NaCl, 10 mM phosphate, […], pH 7,4, 1% glucose). Les souris sont alors traitées par les composés à tester 24 heures après l'infection (5 souris traités par composé à tester + un groupe témoin). Chaque composé testé est injecté par voie intrapéritonéale et à des concentrations de 1 et 0,1 mg/kg de poids corporel dans un volume final de 100 µl d'eau stérile. Les souris témoins non traitées reçoivent 100 µl d'eau stérile après infection. La parasitémie a été évaluée 2 fois par semaine au microscope à partir d'échantillons de sang prélevés sur la veine caudale. Afin d'évaluer la persistance des composés, les souris qui étaient parasite-négatives après un mois ont été ré-infectées avec 10^5 trypanosomes. La réinfection a été répétée après le deuxième et troisième mois à partir de l'infection initiale et du traitement si les souris infectées étaient toujours aparasitémiques (sans parasites dans le sang). La réinfection a été réalisée avec des parasites provenant de souris témoins infectées de manière chronique pour éviter une réponse immunitaire immédiate due à la présence d'anticorps homologues anti-VSG. Deux souris non-traitées (Témoin) ont été infectées à chaque infection et réinfection. Le traitement a été considéré inefficace quand plus de 2 souris sur 5 dans un groupe étaient parasite-positives.

T. congolense [2] = assay: In vitro drug sensitivity test on cultured bloodstream forms, 48 h; assay type: cell-based; details: for IC50: 48 h exposure, 34 °C; for activité trypanocide inférieure à celle des formulations commerciales: versus Veridium and Samorin, 48 h, up to about
Excerpt: (§1) Les souches T. congolense et T. b. brucei (formes sanguines) ont été cultivées in vitro selon le protocole décrit par Baltz et al. (Embo. J. 1985, 4, 1273-1277) et Coustou et al. (PLOS Negl. Trop. Dis., 2010, 4, 618).
(§2) L'isométamidium a été synthétisé et a été purifié par HPLC (220 nm). L'analyse de sa structure a été confirmée par LC /MS et par RMN 1H et 13C et un degré de pureté de 99,7 % a été obtenu. L'isométamidium pur ainsi que les formulations commerciales Veridium® et Samorin® ont été dissous dans de l'eau distillée (10 mg / ml) et ont été conservés à -20°C avant utilisation.
(§3) Les trypanosomes sont ajoutés dans des plaques de culture cellulaire 96 puits incubées à 34 °C (T. congolense) ou à 37 °C (T. b. brucei) sous atmosphère de CO2 (4 %) pendant 4 heures avant l'ajout des composés qui ont été dilués en série 1/10^eme. 100 µl de chaque dilution ont été ensuite ajoutés à 100 µl de culture dans les puits (2 puits pour chaque dilution de 1 mg/ml jusqu'à 1.10^-19 mg/ml) puis le milieu est incubé à 34 °C (T. congolense) ou à 37 °C (T. b. brucei) sous atmosphère de CO2 (4 %) pendant 48 heures. Les IC50 (Concentration qui réduit de 50% la population parasitaire au bout de 48 heures de culture) ont été calculées en utilisant le logiciel de traitement de données Sigmaplot version 12.
(§4) Les souches T. congolense et T. b. brucei (formes sanguines), les différents composés et leur IC50 ont été, respectivement, cultivées in vitro, préparés et évaluées selon le protocole décrit dans l'exemple 1. Les puretés respectives pour chaque composé obtenu étaient de 97,6 % pour l'isomère bleu, 95,4% pour l'isomère rouge et 97,9 % pour le composé disubstitué.

T. b. brucei = assay: as above; assay type: cell-based; details: for IC50: 48 h exposure, 37 °C
Excerpt: as §1, §2, §3, §4

T. congolense [3] = details: cattle, Finelle et al. 1963; cited from earlier work
T. congolense [4] = details: mice, Brown et al. 1961; purity of compounds unsatisfactory; cited from earlier work
[5] = Trypanosoma congolense, read-out: IC50
[6] = Trypanosoma brucei, read-out: IC50

IC50 (T. congolense [2])	IC50 (T. congolense [2]; [5]) [µg/mL]	IC50 (T. b. brucei)	Compound	Nombre de souris avec une parasitemia positive (T. congolense [1]; dose 0.1 mg/kg i.p., 1 mois)	activité curative et préventive (durée) (T. congolense [1])	Nombre de souris avec une parasitemia positive (T. congolense [1]; dose 1 mg/kg i.p., 1 mois)	Nombre de souris avec une parasitemia positive (T. congolense [1]; dose 1 mg/kg i.p., 2 mois)	IC50 (T. b. brucei; [6]) [µg/mL]	activité trypanocide in-vivo (T. congolense [4])	Nombre de souris avec une parasitemia positive (T. congolense [1]; dose 0.1 mg/kg i.p., 2 mois)	activité trypanocide inférieure à celle des formulations commerciales (T. congolense [2]) [fois]	Nombre de souris avec une parasitemia positive (T. congolense [1]; dose 1 mg/kg i.p., 3 mois)	further results
66,27 ± 14,37 ng/ml	0.0663	>1 µg/mL	CC[n+]1c(-c2ccccc2)c2cc(N=NNc3cccc(C(=N)N)c3)ccc2c2ccc(N=NNc3cccc(C(=N)N)c3)cc21 [Composé disubstitué pur, 3,8-di-(3-m-amidinophenyltriazeno)-5-éthyl-6-phénylphénanthridium]	5	pendant au moins trois mois	0	0	> 1	activité prophylactique et non curative	–	–	–	Nombre de souris avec une parasitemia positive (T. congolense [1]; dose 1 mg/kg i.p., 3 mois, listed as Composé disubstitué, 1 mg/kg): 1; Nombre de souris avec une parasitemia positive (T. congolense [1]; dose 1 mg/kg i.p., 3 mois, listed as composé disubstitué, 1 mg/kg): seule une souris est parasite-positive; Nombre de souris avec une parasitemia positive (T. congolense [1]; dose 1 mg/kg i.p., 4 mois, listed as Composé disubstitué, 1 mg/kg): 4; Nombre de souris avec une parasitemia positive (T. congolense [1]; dose 1 mg/kg i.p., 4 mois, listed as composé disubstitué, 1 mg/kg): la seule souris parasite-négative; protection / activité curative (T. congolense [3]): permettait de protéger les bovins contre T. congolense, mais était dépourvu de toute activité curative
3,63 ± 0,55 ng/ml	0.00363	202,15 ± 62,92 ng/ml	CC[n+]1c(-c2ccccc2)c2cc(N)ccc2c2ccc(N=NNc3cccc(C(=N)N)c3)cc21 [Isomère rouge, 3-(3-m-amidinophényl-2-triazeno)-8-amino-5-éthyl-6-phénylphénanthridinium]	0	–	0	1	0.202	–	5	≤ 10	5	activité trypanocide inférieure à celles des compositions commerciales (T. b. brucei; versus commercial compositions, 48 h): ~20 fois
0,56 ± 0,05 ng/ml	0.00056	9,24 ± 2,13 ng/ml	CC[n+]1c(-c2ccccc2)c2cc(N/N=N/c3cccc(C(=N)N)c3)ccc2c2ccc(N)cc21 [Isométamidium pur, 8-(3-m-amidinophényl-2-triazeno)-3-amino-5-éthyl-6-phénylphénanthridinium]	0	–	0	0	0.00924	–	0	–	0	Nombre de souris avec une parasitemia positive (T. congolense [1]; dose 0.1 mg/kg i.p., 3 mois): 0; Nombre de souris avec une parasitemia positive (T. congolense [1]; dose 0.1 mg/kg i.p., 4 mois): 5; Nombre de souris avec une parasitemia positive (T. congolense [1]; dose 1 mg/kg i.p., 4 mois): 5

Compound	IC50 (T. congolense [2])	IC50 (T. congolense [2]; [5]) [µg/mL]	IC50 (T. b. brucei)	Nombre de souris avec une parasitemia positive (T. congolense [1]; dose 0.1 mg/kg i.p., 1 mois)	activité curative et préventive (durée) (T. congolense [1])	Nombre de souris avec une parasitemia positive (T. congolense [1]; dose 1 mg/kg i.p., 1 mois)	Nombre de souris avec une parasitemia positive (T. congolense [1]; dose 1 mg/kg i.p., 2 mois)	IC50 (T. b. brucei; [6]) [µg/mL]	activité trypanocide in-vivo (T. congolense [4])	Nombre de souris avec une parasitemia positive (T. congolense [1]; dose 0.1 mg/kg i.p., 2 mois)	activité trypanocide inférieure à celle des formulations commerciales (T. congolense [2]) [fois]	Nombre de souris avec une parasitemia positive (T. congolense [1]; dose 1 mg/kg i.p., 3 mois)	further results
CC[n+]1c(-c2ccccc2)c2c(N=Nc3cccc(C(=N)N)c3)c(N)ccc2c2ccc(N)cc21 [Isomère bleu, 7-(m-amidinophényldiazo)-3,8-diamino-5-éthyl-6-phényl phénanthridinium, reference compound]	7,11 ± 0,76 ng/ml	0.00711	12,01 ± 2,22 ng/ml	0	n'est plus significative au bout de deux mois	0	4	0.012	activité trypanocide curative	5	≤ 10	–	protection des souris d'une infection (durée) (T. congolense [1]; dose 0,1 mg/kg): ne sont actifs que pendant un mois
